The assay has as its target T1, CCK-A receptors in rat pancreatic membranes (Rattus norvegicus, UniProt P30551).
T1 construct: CCK-A receptors in rat pancreatic membranes; from tissue; host or cells: rat pancreas (membranes)
T1 sequence (P30551 1-444): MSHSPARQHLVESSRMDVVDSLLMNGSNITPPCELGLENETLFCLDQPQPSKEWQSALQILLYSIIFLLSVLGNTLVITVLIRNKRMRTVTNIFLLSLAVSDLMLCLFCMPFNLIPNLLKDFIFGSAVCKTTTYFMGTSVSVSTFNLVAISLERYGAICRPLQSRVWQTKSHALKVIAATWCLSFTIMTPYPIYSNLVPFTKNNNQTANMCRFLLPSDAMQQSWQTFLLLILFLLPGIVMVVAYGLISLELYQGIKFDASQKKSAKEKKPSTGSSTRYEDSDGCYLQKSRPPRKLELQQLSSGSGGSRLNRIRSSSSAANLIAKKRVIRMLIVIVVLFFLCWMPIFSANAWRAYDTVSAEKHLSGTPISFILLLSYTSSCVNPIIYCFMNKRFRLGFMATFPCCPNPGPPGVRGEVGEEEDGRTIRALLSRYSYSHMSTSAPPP
Briefly: Test B: CCK-A binding. Particulars: against Bolton Hunter 125I-CCK-8 and 3H-L364718, read-out: binding constant (Ki) at CCK-A receptors. As for the experimental part: Evaluation of a test compound for its ability to bind to CCK-A receptors in rat pancreatic membranes is measured against the binding of Bolton Hunter^125 I-CCK-8 and ^3 H-L364718 to rat pancreas according to the procedures of Chang, Lotti, Chan and Kunkel (Molecular Pharmacology, 30:212-216, 1986).

Where a SMILES comes first, the peptide text is derived from it. [ ]: non-standard residue; d: D form. The star is where a group is joined. dNMeD = CN[C@H](CC(=O)O)C(=O)O; Nle = CCCC[C@H](N)C(=O)O; X1 = O=C(Cc1ccc(O)cc1)*

As to `CCCC[C@H](NC(=O)Cc1ccc(O)cc1)C(=O)NCC(=O)N[C@@H](Cc1c[nH]c2ccccc12)C(=O)N[C@@H](CCCC)C(=O)N(C)[C@H](CC(=O)O)C(=O)N[C@@H](Cc1ccccc1)C(N)=O` [Example 49, Hpa-Ahx-Gly-Trp-Ahx-MeDAsp-Phe-NH2] (X1-[Nle]GW[Nle][dNMeD]F-NH2), the inhibition constant Ki (usually a measure of affinity in units of concentration, obtained from inhibition or displacement) was found to be 0.03 nM.

Values taken from patent US5502164A, “Peptide compounds having therapeutic activity” (priority 1992, dated 1996).
